According to PMC6273963, “Design, Synthesis, and Biological Evaluation of Some Novel Pyrrolizine Derivatives as COX Inhibitors with Anti-Inflammatory/Analgesic Activities and Low Ulcerogenic Liability” (Molecules, 2016):
“Also recorded” adds a separate entry of the source.

How the values were obtained:
COX-1 (ovine) = molecular target: T1, COX-1 (ovine) (Ovis aries, UniProt P05979); assay: COX colorimetric inhibitor screening assay, COX-1
T1 sequence (P05979 25-600): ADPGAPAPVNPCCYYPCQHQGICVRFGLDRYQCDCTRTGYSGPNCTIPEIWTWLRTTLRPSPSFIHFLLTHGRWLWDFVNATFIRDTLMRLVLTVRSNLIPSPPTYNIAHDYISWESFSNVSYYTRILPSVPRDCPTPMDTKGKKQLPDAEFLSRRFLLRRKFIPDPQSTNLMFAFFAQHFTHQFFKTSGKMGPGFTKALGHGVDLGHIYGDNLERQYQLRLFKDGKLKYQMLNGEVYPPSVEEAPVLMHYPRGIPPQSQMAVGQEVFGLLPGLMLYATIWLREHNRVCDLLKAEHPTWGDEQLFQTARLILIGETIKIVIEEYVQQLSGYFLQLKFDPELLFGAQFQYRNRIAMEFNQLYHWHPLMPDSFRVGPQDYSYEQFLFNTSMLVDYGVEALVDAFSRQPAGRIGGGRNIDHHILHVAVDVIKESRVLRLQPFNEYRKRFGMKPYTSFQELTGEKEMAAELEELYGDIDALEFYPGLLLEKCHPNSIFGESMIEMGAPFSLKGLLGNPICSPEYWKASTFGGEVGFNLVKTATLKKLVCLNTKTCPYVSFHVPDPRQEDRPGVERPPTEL

[1] = molecular target: T2, COX-2 (human recombinant) (Homo sapiens, UniProt P35354); assay: COX colorimetric inhibitor screening assay, COX-2; conditions: for SI (COX-2 selectivity index = IC50 of COX-1/IC50 of COX-2): in vitro
T2 sequence (P35354 18-604): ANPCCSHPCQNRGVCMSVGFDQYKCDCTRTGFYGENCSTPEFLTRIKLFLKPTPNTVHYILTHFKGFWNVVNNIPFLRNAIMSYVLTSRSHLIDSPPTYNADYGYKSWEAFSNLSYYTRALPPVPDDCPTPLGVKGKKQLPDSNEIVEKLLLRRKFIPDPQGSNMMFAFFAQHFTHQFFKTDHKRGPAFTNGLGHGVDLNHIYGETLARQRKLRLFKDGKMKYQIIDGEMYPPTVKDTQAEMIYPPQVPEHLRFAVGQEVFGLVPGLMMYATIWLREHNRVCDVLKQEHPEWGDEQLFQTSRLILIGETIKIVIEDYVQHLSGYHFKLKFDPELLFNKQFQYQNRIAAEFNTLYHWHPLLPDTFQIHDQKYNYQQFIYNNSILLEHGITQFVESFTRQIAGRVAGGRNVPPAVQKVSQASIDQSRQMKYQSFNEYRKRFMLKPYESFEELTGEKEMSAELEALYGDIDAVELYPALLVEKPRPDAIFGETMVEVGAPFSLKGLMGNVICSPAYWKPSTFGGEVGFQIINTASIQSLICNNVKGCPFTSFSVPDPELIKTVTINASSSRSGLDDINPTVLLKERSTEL

rat stomach mucosa = assay: Acute ulcerogenicity study; type: in vivo; conditions: oral, 0.48 mmol/kg; for Ulcerogenicity UI (ulcer index): three days, n = 6
Procedure: GIT toxicity is the main serious side effect of the NSAIDs. In this work, the ulcerogenicity of the novel compounds 12–19 was evaluated according to the previous reported methodology. The tested compounds 12–19 and ibuprofen were given orally in a dose of 0.48 mmol/kg.
(§1) Adult albino rats of both sex weighing 100–140 g were used in evaluation of the anti-inflammatory, analgesic, ulcerogenic activity in addition to the histopathological study of the new pyrrolizines 12–19. Animal ethical use clearance was obtained from the Ethical Committee at the College of Pharmacy, Umm Al-Qura University. Normalization of the animals with laboratory conditions were achieved by keeping them in laboratory one week before starting the experiments. Standard rat pellet diet was used for feeding animals and water ad libitum.
GIT toxicity was evaluated according to the previous report. Adult albino rats of both sexes were divided into groups of six animals each. The test compounds were dissolved first in 0.5 mL DMSO, then CMC (1%) was added dropwise with trituration. Rats were fasted 20 h before drug administration. The eight tested compounds and ibuprofen were given orally in a dose of 0.24 and 0.48 mmol/kg/day suspended in 1% CMC, while the control group received vehicle (1% CMC containing few drops of DMSO). Rats were then fasted for 2 h, allowed to feed for 2 h then fasted again for another 20 h. Other doses were given in the second and third days. In the fourth day, Pentobarbital (60 mg/kg IP) was used to induce deep anesthesia then rats were sacrificed. The stomachs were removed, opened along with the greater curvature and rinsed with 0.9% saline. The number of mucosal damages (red spots) were counted using magnifying lens and their severity (ulcerogenic severity) was graded in a scale from 0 to 3 as follows: (0) normal (no injury), (0.5) red coloration, (1) spot ulcer, (1.5) hemorrhagic streaks, (2) ulcer > 3 mm, (3) ulcer > 5 mm. The ulcer index was calculated using the following equation ulcer index (UI) = UN + US + UP/10, where UN is the average number pf ulcers per animal, US is the average of severity score, UP is the percent of animal with ulcer.

[2] = system: carrageenan-induced rat paw edema; assay: Carrageenan-induced rat paw edema model (anti-inflammatory activity); type: in vivo; set-up: key to Potency (anti-inflammatory activity of tested compound/ibuprofen): ratio of % inhibition of edema (compound / ibuprofen); ibuprofen = 1.00; conditions: for % Inhibition in Edema Thickness 1 h: 1 h after induction of inflammation; for % Inhibition in Edema Thickness 1 h / % Inhibition in Edema Thickness 2 h / % Inhibition in Edema Thickness 3 h: IP, dose molecularly equivalent to ibuprofen, n = 6; for % Inhibition in Edema Thickness 2 h: 2 h after induction of inflammation; for % Inhibition in Edema Thickness 3 h: 3 h after induction of inflammation; for Potency (anti-inflammatory activity of tested compound/ibuprofen): after 3 h of induction of inflammation, relative to ibuprofen; for anti-inflammatory activity (in words): compared with ibuprofen and parent compound 12
From the text: The carrageenan-induced rat paw edema model was utilized to investigate the anti-inflammatory activity of compounds 12–19 relative to ibuprofen as a reference drug.
as §1
The anti-inflammatory activity of the novel compounds 12–19 was evaluated in comparison with ibuprofen as a standard, using a rat paw edema model as described by Winter et al.. Adult albino rats of both sexes (100–140 gm) were used. Rats were uniformly hydrated by giving 3 mL water for each rat through gastric inoculation to reduce variability to edema response. Animals were then divided into groups of six animal each. The control group was given saline solution containing few drops of sodium carboxymethyl cellulose (CMC) 1% and DMSO. Ibuprofen (50 and 100 mg/kg) was given as standard drug. The new compounds 12–19 in a dose molecularly equivalent to ibuprofen were dissolved in 0.5 mL DMSO and CMC 1% was added dropwise with continuous triturating to complete the specified volume. The tested compounds were administered intraperitoneally (IP). The induction of inflammation was achieved by subcutaneous (SC) injection of carrageenan-sodium gel, into the sub-plantar region of the right hind paw. The dorsoventral diameter (thickness) of the right and left hind paw of each rat was measured using digital calipers with accuracy of 0.01 mm (Cole-Parmer, Vernon Hills, IL, USA). The thickness of edema was measured 1, 2 and 3 h after induction of inflammation. The left hind paw diameter served as a control for the degree of inflammation in the right hind paw. The changes in the edema thickness were expressed as mean ± SEM, Figure 4. The anti-inflammatory activity was calculated as % inhibition of inflammation = (1 − Lt/Lc) × 100. Where Lt is the mean increase in paw thickness in rats treated with the tested compounds and Lc is the mean increase in paw thickness in control group. Data were collected, and statistically analyzed by One way ANOVA followed by student-Newman-Keuls multiple comparison test, Table 2.

thermal pain (hot plate) = assay: Hot-plate test (analgesic activity); type: in vivo, rat; conditions: IP; for analgesic potency relative to ibuprofen: 0.48 mmol/kg; for analgesic activity (in words): 0.24 and 0.48 mmol/kg, 2 h after injection, compared with ibuprofen
Procedure: A hot-plate was used to induce thermal pain and the cutoff time was fixed to 15 s [30]. […] The analgesic activity of the novel pyrrolizines were carried out using the thermal model (hot-plate test) according to a previous report [30]. An electronically controlled hot-plate (Harvard Apparatus Ltd., Kent, UK) was used and the cut-off time was 15 s and the temperature was adjusted to 52 ± 0.1 °C. Animals were then divided into groups of six animal each. Rats were assigned numbers of 1–6 in each group. The reference drug was given intraperitoneally at a dose of 50 mg/kg (0.24 mmol/kg) and 100 mg/kg (0.48 mmol/kg). […] The response latencies (time elapsed until licking paw or jumping) were measured and expressed as mean ± SEM. The percent changes (analgesic effects) of the tested compounds were calculated as percent change in latencies divided by baseline time (100 × (T1 − T0)/T0) and results were expressed as % change ± SEM, Figure 6.

[3] = system: stomach mucosa, submucosa and mucosal glands; assay: Histopathological study of rat stomach; type: in vivo; conditions: rats of the ulcerogenicity test, haematoxylin and eosin stain
From the text: The stomachs of the rats used in ulcerogenicity test were subjected to a histopathological study to visualize the deep effects of ibuprofen and tested compounds on the stomach mucosa, submucosa and mucosal glands. The specimens were stained with haematoxylin and eosin stain [33].
The study investigated the deep effect of the tested compounds on the mucosa, submucosa and mucosal gland. The stomachs which were opened longitudinally along the greater curvature were used and the specimens were taken from the stomachs of all cases. These specimens were fixed in 10% formalin solution for 72 h. The samples were processed and embedded in paraffin wax. Microtomy was done and 5 microns tissue sections were obtained and mounted on clean glass slides.

IC50 (COX-1 (ovine)) [nM] | IC50 [1] [nM] | SI (COX-2 selectivity index = IC50 of COX-1/IC50 of COX-2) [1] | SMILES | Ulcerogenicity UI (ulcer index) (rat stomach mucosa) | Ulcerogenicity % Protection (% inhibition of ulcer relative to ibuprofen) (rat stomach mucosa) [%] | % Inhibition in Edema Thickness 1 h [2] [%] | % Inhibition in Edema Thickness 2 h [2] [%] | % Inhibition in Edema Thickness 3 h [2] [%] | Potency (anti-inflammatory activity of tested compound/ibuprofen) [2] | analgesic potency relative to ibuprofen (thermal pain (hot plate)) [times] | analgesic activity (in words) (thermal pain (hot plate)) | histopathological findings in stomach transverse sections [3] | anti-inflammatory activity (in words) [2]
5010 | 1720 | 2.91 | Cc1ccc(S(=O)(=O)Nc2c(C#N)c3n(c2C(=O)Nc2ccc(Br)cc2)CCC3)cc1 [Compound 17, N-(4-Bromophenyl)-7-cyano-6-(4-methylphenylsulfonamido)-2,3-dihydro-1H-pyrrolizine-5-carboxamide] | 2.26 | 83.69 | 27.19 | 40.55 | 49.47 | 1.21 | 1.03 to 1.27 | higher analgesic activity than ibuprofen; also recorded: the most active | little histopathological effects such as congested blood vessels and variable degrees of leukocytes infiltration | 
5690 | 1640 | 3.48 | N#Cc1c(NC(=O)CCl)c(C(=O)Nc2ccc(Br)cc2)n2c1CCC2 [Compound 13, N-(4-Bromophenyl)-6-(2-chloroacetamido)-7-cyano-2,3-dihydro-1H-pyrrolizine-5-carboxamide] | 4.41 | 68.18 | 16.13 | 35.43 | 52.31 | 1.28 | 1.03 to 1.27 | higher analgesic activity than ibuprofen | variable degrees of necrosis with some leukocytes infiltration | the highest anti-inflammatory activity
3370 | 1060 |  | N#Cc1c2c(n3c1CCC3)C(=O)N(c1ccc(Br)cc1)CC(=O)N2 [Compound 15, 4-(4-Bromophenyl)-2,5-dioxo-1,2,3,4,5,7,8,9-octahydro-[1,4]diazepino[5,6-b]pyrrolizine-10-carbonitrile] |  |  | 10.60 | 16.54 | 24.91 | 0.61 |  | lower than that of ibuprofen | little histopathological effects such as congested blood vessels and variable degrees of leukocytes infiltration | 
4640 | 1270 | 3.64 | N#Cc1c(N)c(C(=O)Nc2ccc(Br)cc2)n2c1CCC2 [Compound 12, 6-Amino-N-(4-bromophenyl)-7-cyano-2,3-dihydro-1H-pyrrolizine-5-carboxamide] | 4.66 | 66.38 | 21.20 | 37.40 | 44.79 | 1.10 | 1.03 to 1.27 | higher analgesic activity than ibuprofen | variable degrees of necrosis with some leukocytes infiltration | higher anti-inflammatory activity than that of ibuprofen
2450 | 850 | 2.89 | N#Cc1c(NC(=O)c2ccccc2)c(C(=O)Nc2ccc(Br)cc2)n2c1CCC2 [Compound 16, 6-Benzamido-N-(4-bromophenyl)-7-cyano-2,3-dihydro-1H-pyrrolizine-5-carboxamide] | 2.26 | 83.69 | 29.95 | 37.80 | 50.58 | 1.24 | 1.03 to 1.27 | higher analgesic activity than ibuprofen; also recorded: good activity comparable to that of ibuprofen | normal mucosal glands with no histopathological effects | 
 |  |  | CC(C)Cc1ccc(C(C)C(=O)O)cc1 (centres unmarked) [Ibuprofen, reference compound] | 13.86 | 0 | 25.81 | 33.46 | 40.82 | 1.00 |  |  | severe damage represented by leukocytes infiltration and necrosis in the mucosa layer with hypertrophy in mucosal glands | 
